According to patent US20070208087A1, “Compounds, compositions and methods for the treatment of inflammatory diseases” (priority 2001, published 2007):
Values joined by “and” are separate entries in the source; they are usually repeats but may differ in a detail not shown here. Equal values may be shown once. Read-outs that look alike come from different tables or passages of the source.

Columns and labels:
Format in all cases: cell-based
microglia = assay: Ranking of NO release inhibition (Example 12); conditions: Microglia, ranking table
Text: The bis- and tris-dihydroxyaryl compounds were ranked in order of effectiveness for the inhibition of NO release as set out in Table 8.

[1] = tested on: EOC 13.31 microglia cells; assay: Inhibition of NO release from microglia following 24 hours pretreatment (Example 10); conditions: 50 uM pretreatment 24 hours, then LPS/IFNγ 48 hours; for inhibition at 50 µM: Microglia
Description: This experiment was designed to determine if pretreatment for 24 hours with bis- and tris-dihydroxyaryl compounds changes NO inhibition previously observed with concurrent exposure of bis- and tris-dihydroxyaryl compounds. […] This study seeks to determine if pretreatment with bis- and tris-dihydroxyaryl compounds increases NO release inhibition. EOC 13.31 microglia cells were plated at 1×10^6 cells/ml in 96 well plates. After 48 hours, confluent cells were exposed to 50 μM compound (stock 10 mM in DMSO) prepared in fresh cell culture media. After 24 hours, 10 μg/ml LPS and 10 ng/ml IFNγ was added to wells directly without a media change. Cells were incubated for a further 48 hours and nitric oxide release was measured using the Griess Reaction.

Microglial cells = assay: Dose response inhibition of NO release from microglia, 0.5-500 μM (Example 9); conditions: for μM NO release / μM NO release (No LPS average subtracted): 3 replicates
Description: This experiment was designed to determine the dose response inhibition of NO release from microglia by bis- and tris-dihydroxyaryl compounds when stimulated with LPS/IFNγ. Earlier experiments have demonostrated that some bis- and tris-dihydroxyaryl compounds are good inhibitors of NO release from microglia. This experiment is designed to determine a dose response for various effective bis- and tris-dihydroxyaryl compounds. Microglial cells were plated into 96 well plates at 1×10^5 cells/ml. At 48 hours, media was exchanged for media containing 10 ng/ml IFNγ and 10 μg/ml LPS and the following compounds 3, 4, 21, 26 and the positive control L-NAME. The doses tested were: 0.5 μM, 1.0 μM, 5.0 μM, 10 μM, 25 μM, 50 μM, 100 μM, 250 μM, and 500 μM. Nitric oxide release was measured after 48 hours using the Griess reaction.

[2] = tested on: TNF-α release from microglia; assay: TNF-α release from LPS/IFNγ stimulated microglia, TNF-α ELISA (Example 11); conditions: 50 uM compound, TNF-α release, 10 ug LPS and 10 ng IFNγ, 24 hours
Description: Also, bis- and tris-dihydroxyaryl compound's ability to inhibit NO release strongly supports their interference with the inflammatory cascade and utlimately inhibition of inflammation. Microglia cells were plated at 1×10^5 cells/ml into 96 well plates. At day three, they were treated with 50 μM bis- and tris-dihydroxyaryl compound for 1 hour and then exposed to 10 μg/ml LPS+10 ng/ml IFNγ for 24 hours. 10 μl of media was removed and stored at −80° until TNF-α ELISA assays were performed. Samples were diluted 1:50 before running the TNF-α ELISA (kit commercially available from Sigma).

[3] = tested on: EOC 13.31 microglial cells; assay: NO release inhibition screen in LPS/IFNγ stimulated microglia, Griess reaction at 48 hours (Example 7)
Description: In this experiment, additional bis- and tris-dihydroxyaryl compounds were screened for their ability to inhibit nitric oxide release from microglial cells. Microglial cells stimulated with LPS/IFNγ release nitric oxide. […] This is a continuation of screening experiments. EOC 13.31 microglial cells were plated into 96 well plates. At 24 hours and at confluency, cells were treated with 10 μg/ml LPS/10 ng/ml IFNγ+50 uM bis- and tris-dihydroxyaryl compounds.

[4] = dose 0.5 μM, LPS/IFNγ, 48 hours
[5] = dose 100 μM, LPS/IFNγ, 48 hours
[6] = dose 250 μM, LPS/IFNγ, 48 hours
[7] = dose 500 μM, LPS/IFNγ, 48 hours

SMILES: O=C(CCC(=O)NCc1ccc(O)c(O)c1)NCc1ccc(O)c(O)c1 [Compound 67, succinic acid bis(3,4-dihydroxybenzylamide)]
- inhibition at 50 µM (microglia): 61%
- % inhibition ([1]; single replicates): 58.88% and 67.74%
- inhibition at 50 µM ([1]; read-out: Avg % Inhibition): 65.6%
- inhibition at 50 µM ([1]; single replicates, read-out: % inhibition): 70.3%
- inhibition at 0.5 µM (Microglial cells; Microglia, 48 h, dose 0.5 μM, NO release, LPS/IFNγ, 48 hours, read-out: Avg % Inhibition): -2.75%
- inhibition at 1 µM (Microglial cells; Microglia, 48 h, dose 1 μM, NO release, LPS/IFNγ, 48 hours, read-out: Avg % Inhibition): 1.5%
- inhibition at 5 µM (Microglial cells; Microglia, 48 h, dose 5 μM, NO release, LPS/IFNγ): -0.75%
- inhibition at 10 µM (Microglial cells; Microglia, 48 h, dose 10 μM, NO release, LPS/IFNγ): -12.7%
- inhibition at 25 µM (Microglial cells; Microglia, 48 h, dose 25 μM, NO release, LPS/IFNγ): -5.5%
- inhibition at 50 µM (Microglial cells; Microglia, 48 h, dose 50 μM, NO release, LPS/IFNγ): -9.24%
- inhibition at 100 µM (Microglial cells; Microglia, 48 h, dose 100 μM, NO release, LPS/IFNγ, 48 hours, read-out: Avg % Inhibition): 16%
- inhibition at 250 µM (Microglial cells; Microglia, 48 h, dose 250 μM, NO release, LPS/IFNγ, 48 hours, read-out: Avg % Inhibition): 44.4%
- inhibition at 250 µM (Microglial cells; Microglia, 48 h, dose 250 μM, individual replicates, NO release, LPS/IFNγ, 48 hours, read-out: % inhibition): 45.3%
- inhibition at 500 µM (Microglial cells; Microglia, 48 h, dose 500 μM, NO release, LPS/IFNγ, 48 hours, read-out: Avg % Inhibition): 76.9%
- inhibition at 500 µM (Microglial cells; Microglia, 48 h, dose 500 μM, individual replicates, NO release, LPS/IFNγ, 48 hours, read-out: % inhibition): 75.5%
- inhibition at 500 µM (Microglial cells; Microglia, 48 h, highest concentration tested (500 μM), 48 hours, read-out: inhibited NO release by): 76%
- μM NO release (Microglial cells; [4]): 21.528 µM and 20.278 µM and 20.417 µM
- μM NO release (No LPS average subtracted) (Microglial cells; [4]): 19.83 µM and 18.58 µM and 18.72 µM
- % inhibition (Microglial cells; dose 0.5 μM, individual replicates, NO release, LPS/IFNγ, 48 hours): −7.00% and −0.25% and −1.00%
- μM NO release (Microglial cells; dose 1 μM, LPS/IFNγ, 48 hours): 21.528 µM and 19.306 µM and 19.028 µM
- μM NO release (No LPS average subtracted) (Microglial cells; dose 1 μM, LPS/IFNγ, 48 hours): 19.83 µM and 17.61 µM and 17.33 µM
- % inhibition (Microglial cells; dose 1 μM, individual replicates, NO release, LPS/IFNγ, 48 hours): −7.00% and 5.00% and 6.50%
- μM NO release (Microglial cells; dose 5 μM, LPS/IFNγ, 48 hours): 21.389 µM and 19.583 µM and 20.139 µM
- μM NO release (No LPS average subtracted) (Microglial cells; dose 5 μM, LPS/IFNγ, 48 hours): 19.69 µM and 17.88 µM and 18.44 µM
- % inhibition (Microglial cells; dose 5 μM, individual replicates, NO release, LPS/IFNγ, 48 hours): −6.25% and 3.50% and 0.50%
- μM NO release (Microglial cells; dose 10 μM, LPS/IFNγ, 48 hours): 22.917 µM and 22.083 µM and 22.778 µM
- μM NO release (No LPS average subtracted) (Microglial cells; dose 10 μM, LPS/IFNγ, 48 hours): 21.22 µM and 20.38 µM and 21.08 µM
- % inhibition (Microglial cells; dose 10 μM, individual replicates, NO release, LPS/IFNγ, 48 hours): −14.49% and −9.99% and −13.74%
- μM NO release (Microglial cells; dose 25 μM, LPS/IFNγ, 48 hours): 21.944 µM and 20.556 µM and 21.250 µM
- μM NO release (No LPS average subtracted) (Microglial cells; dose 25 μM, LPS/IFNγ, 48 hours): 20.24 µM and 18.86 µM and 19.55 µM
- % inhibition (Microglial cells; dose 25 μM, individual replicates, NO release, LPS/IFNγ, 48 hours): −1.75%
- μM NO release (Microglial cells; dose 50 μM, LPS/IFNγ, 48 hours): 22.639 µM and 21.111 µM and 22.083 µM
- μM NO release (No LPS average subtracted) (Microglial cells; dose 50 μM, LPS/IFNγ, 48 hours): 20.94 µM and 19.41 µM and 20.38 µM
- % inhibition (Microglial cells; dose 50 μM, individual replicates, NO release, LPS/IFNγ, 48 hours): −12.99% and −4.75% and −9.99%
- μM NO release (Microglial cells; [5]): 17.917 µM and 14.583 µM and 19.306 µM
- μM NO release (No LPS average subtracted) (Microglial cells; [5]): 16.22 µM and 12.88 µM and 17.61 µM
- % inhibition (Microglial cells; dose 100 μM, individual replicates, NO release, LPS/IFNγ, 48 hours): 12.49% and 30.48% and 5.00%
- μM NO release (Microglial cells; [6]): 11.835 μM (2×) and 12.367 μM
- μM NO release (No LPS average subtracted) (Microglial cells; [6]): 10.14 μM (2×) and 10.67 μM
- % inhibition (Microglial cells; dose 250 μM, individual replicates, NO release, LPS/IFNγ, 48 hours): 42.44%
- μM NO release (Microglial cells; [7]): 6.250 µM and 5.707 µM and 5.978 µM
- μM NO release (No LPS average subtracted) (Microglial cells; [7]): 4.55 µM and 4.01 µM and 4.28 µM
- % inhibition (Microglial cells; dose 500 μM, individual replicates, NO release, LPS/IFNγ, 48 hours): 78.38%
- % inhibition ([2]; individual replicates, 50 µM): −27.48% and −14.06% and −17.41%
- inhibition at 50 µM ([2]; Microglia, 24 h, read-out: Avg % Inhibition): -19.6%
- μM NO release Avg ([3]; 50 uM + 10 μg/ml LPS/10 ng/ml IFNγ, 48 hours): 10.579 µM
- % inhibition ([3]; 50 uM + 10 μg/ml LPS/10 ng/ml IFNγ, 48 hours, single replicates, 50 µM): 44.82% and 72.72% and 65.01%
- inhibition of NO release, in words ([3]; 50 uM, LPS/IFNγ stimulated microglia): effective inhibitors of NO release
- inhibition at 50 µM ([3]; Microglia, 48 h, 50 uM + 10 μg/ml LPS/10 ng/ml IFNγ, 48 hours, read-out: Avg. % Inhibition): 60.9%
